Experimental data taken from the NIST ThermoML archive (doi:10.1021/je060271a).
Values joined by “and” are separate entries in the source; they are usually repeats but may differ in a detail not shown here. Equal entries are not always repeated.

Conditions: 323.15 K, Liquid, Vibrating tube method

CCCCCC(=O)OCC(COC(=O)CCCCC)(COC(=O)CCCCC)COC(=O)CCCCC [pentaerythritol tetrahexanoate]
Conditions	mass density
1417.8 kPa	973.7 kg/m3
1423 kPa	973.6 kg/m3
1428.2 kPa	973.6 kg/m3
1434.7 kPa	973.7 kg/m3
1469.9 kPa	973.8 kg/m3
1475.5 kPa	973.7 kg/m3
1482.4 kPa	973.8 kg/m3
1487.6 kPa	973.7 kg/m3
1494.2 kPa	973.8 kg/m3
1505.5 kPa	973.8 kg/m3
1510.7 kPa	973.7 kg/m3
1517 kPa	973.8 kg/m3
1522.7 kPa	973.9 kg/m3
1529.6 kPa	973.7 kg/m3
1536.8 kPa	973.7 kg/m3
1600 kPa	973.8 kg/m3
1606.9 kPa	973.8 kg/m3
1612.8 kPa	973.9 kg/m3
1619 kPa	973.7 kg/m3
1626.3 kPa	973.9 kg/m3
1632.1 kPa	973.7 kg/m3
1639.4 kPa	973.9 kg/m3
1645.6 kPa	973.8 kg/m3
1653.1 kPa	973.9 kg/m3
1660 kPa	973.9 kg/m3
1667 kPa	973.8 kg/m3
1674.8 kPa	973.9 kg/m3
1682.8 kPa	973.8 kg/m3
1689 kPa	973.9 kg/m3
1695.8 kPa	973.9 kg/m3
1703.9 kPa	974 kg/m3
1710.5 kPa	973.9 kg/m3
1718.3 kPa	974 kg/m3
1725.1 kPa	973.9 kg/m3
1732.7 kPa	973.7 kg/m3
1739.2 kPa	973.8 kg/m3
1747.3 kPa	973.9 kg/m3
1753.9 kPa	973.9 kg/m3
1761.9 kPa	974 kg/m3
1770.6 kPa	973.9 kg/m3
1777.5 kPa	974 kg/m3
1896.8 kPa	974 kg/m3
1906.3 kPa	974 kg/m3
1914.3 kPa	974.1 kg/m3
1923.6 kPa	973.9 kg/m3
1931.8 kPa	974 kg/m3
1940.3 kPa	974 kg/m3
1947.8 kPa	974 kg/m3
1956.8 kPa	974.1 kg/m3
1966 kPa	974 kg/m3
1973.3 kPa	974 kg/m3
1981.3 kPa	974.1 kg/m3
1990.8 kPa	974.2 kg/m3
2115.6 kPa	974 kg/m3
2124.4 kPa	974.1 kg/m3
2134.6 kPa	974.2 kg/m3
2174 kPa	974.2 kg/m3
2184.9 kPa	974.2 kg/m3
2193.8 kPa	974.2 kg/m3
2203.2 kPa	974.3 kg/m3
2214.3 kPa	974.2 kg/m3
2223.5 kPa	974.3 kg/m3
2234.2 kPa	974.3 kg/m3
2245.5 kPa	974.4 kg/m3
2255 kPa	974.4 kg/m3
2264.6 kPa	974.2 kg/m3
2495.1 kPa	974.6 kg/m3
2505.3 kPa	974.6 kg/m3
2517.8 kPa	974.5 kg/m3
2528.6 kPa	974.4 kg/m3
2541.1 kPa	974.5 kg/m3
2553.7 kPa	974.6 kg/m3
2564.1 kPa	974.4 kg/m3
2574.7 kPa	974.3 kg/m3
2587.7 kPa	974.5 kg/m3
2599.7 kPa	974.4 kg/m3
2609.9 kPa	974.6 kg/m3
2622.2 kPa	974.5 kg/m3
2632.1 kPa	974.6 kg/m3
2642.3 kPa	974.5 kg/m3
2654.5 kPa	974.6 kg/m3
2664.9 kPa	974.6 kg/m3
2676.8 kPa	974.6 kg/m3
2689.2 kPa	974.6 kg/m3
2699.9 kPa	974.4 kg/m3
2710 kPa	974.6 kg/m3
2722.3 kPa	974.6 kg/m3
2732.8 kPa	974.6 kg/m3
2745.2 kPa	974.6 kg/m3
2758 kPa	974.5 kg/m3
2768.6 kPa	974.7 kg/m3
2779.1 kPa	974.7 kg/m3
2791.8 kPa	974.6 kg/m3
2801.9 kPa	974.7 kg/m3
2814.5 kPa	974.7 kg/m3
2827.5 kPa	974.6 kg/m3
2837.8 kPa	974.7 kg/m3
2849 kPa	974.6 kg/m3
2862 kPa	974.6 kg/m3
2872.9 kPa	974.7 kg/m3
2885.9 kPa	974.7 kg/m3
2910.2 kPa	974.8 kg/m3
2921.8 kPa	974.6 kg/m3
2946.6 kPa	974.8 kg/m3
2960 kPa	974.8 kg/m3
3369.6 kPa	975.1 kg/m3
3401.3 kPa	975.1 kg/m3
3416.4 kPa	975.1 kg/m3
3430.9 kPa	975.1 kg/m3
3448.4 kPa	975.1 kg/m3
3481 kPa	975.1 kg/m3
3512.7 kPa	975.1 kg/m3
3527.3 kPa	975.1 kg/m3
3544.2 kPa	975.1 kg/m3
3557.7 kPa	975.2 kg/m3
3574.4 kPa	975.2 kg/m3
3588.4 kPa	975.2 kg/m3
3605 kPa	975.1 kg/m3
3619.2 kPa	975.1 kg/m3
3805.2 kPa	975.3 kg/m3
3820 kPa	975.3 kg/m3
3837.5 kPa	975.4 kg/m3
3851.8 kPa	975.4 kg/m3
3869.3 kPa	975.5 kg/m3
3886.8 kPa	975.5 kg/m3
3901.9 kPa	975.4 kg/m3
3917 kPa	975.4 kg/m3
3935.3 kPa	975.5 kg/m3
3950.4 kPa	975.4 kg/m3
3968.8 kPa	975.5 kg/m3
3984.3 kPa	975.5 kg/m3
4002.9 kPa	975.4 kg/m3
4018.6 kPa	975.5 kg/m3
4034.4 kPa	975.4 kg/m3
4138.3 kPa	975.6 kg/m3
4157.9 kPa	975.5 kg/m3
4209.5 kPa	975.6 kg/m3
4228.7 kPa	975.6 kg/m3
4245.5 kPa	975.7 kg/m3
4265.2 kPa	975.6 kg/m3
4281.8 kPa	975.7 kg/m3
4301.8 kPa	975.7 kg/m3
4319.1 kPa	975.8 kg/m3
4339.5 kPa	975.8 kg/m3
4356.6 kPa	975.7 kg/m3
4377.1 kPa	975.8 kg/m3
4397.7 kPa	975.8 kg/m3
4414.6 kPa	975.8 kg/m3
4431.8 kPa	975.7 kg/m3
4453.1 kPa	975.7 kg/m3
4474 kPa	975.7 kg/m3
4491.8 kPa	975.8 kg/m3
4509.3 kPa	975.7 kg/m3
6215.6 kPa	977 kg/m3
6237.7 kPa	977 kg/m3
6256.2 kPa	977.1 kg/m3
6278.3 kPa	977.1 kg/m3
6297 kPa	977 kg/m3
6319.4 kPa	977.2 kg/m3
6338.8 kPa	977.1 kg/m3
6508.8 kPa	977.2 kg/m3
6532.7 kPa	977.2 kg/m3
6552.5 kPa	977.2 kg/m3
7405.8 kPa	977.7 kg/m3
7431 kPa	977.8 kg/m3
7486 kPa	977.8 kg/m3
7516.4 kPa	978 kg/m3
7547.5 kPa	977.8 kg/m3
7600 kPa	978 kg/m3
7657.3 kPa	978 kg/m3
7688 kPa	978 kg/m3
7711.5 kPa	978.1 kg/m3
7734.2 kPa	978.1 kg/m3
7761.5 kPa	978 kg/m3
7886.8 kPa	978.1 kg/m3
7915.3 kPa	978.1 kg/m3
7938.6 kPa	978.2 kg/m3
7966.7 kPa	978.2 kg/m3
7990.5 kPa	978.2 kg/m3
8019.5 kPa	978.3 kg/m3
8044.2 kPa	978.3 kg/m3
8073.3 kPa	978.1 kg/m3
8098.3 kPa	978.3 kg/m3
8128.9 kPa	978.3 kg/m3
8158.2 kPa	978.5 kg/m3
8182.5 kPa	978.3 kg/m3
8207.5 kPa	978.3 kg/m3
9038.7 kPa	978.9 kg/m3
9060.6 kPa	979.1 kg/m3
9078.3 kPa	978.9 kg/m3
9100 kPa	978.9 kg/m3
9123 kPa	978.9 kg/m3
9245.2 kPa	979 kg/m3
9267 kPa	979 kg/m3
9289.4 kPa	979.1 kg/m3
9308.6 kPa	979.1 kg/m3
9331.8 kPa	979.1 kg/m3
9354.9 kPa	979 kg/m3
9374.6 kPa	979.1 kg/m3
9395.3 kPa	979.1 kg/m3
9417.9 kPa	979.2 kg/m3
9435.5 kPa	979.1 kg/m3
9456.1 kPa	979.2 kg/m3
9473 kPa	979.2 kg/m3
9493.7 kPa	979.2 kg/m3
9510.8 kPa	979.3 kg/m3
9531.3 kPa	979.2 kg/m3
9552.1 kPa	979.3 kg/m3
9569.5 kPa	979.3 kg/m3
9590.4 kPa	979.3 kg/m3
9603.6 kPa	979.4 kg/m3
9617.2 kPa	979.3 kg/m3
9629.1 kPa	979.4 kg/m3
9642.9 kPa	979.3 kg/m3
9655.3 kPa	979.4 kg/m3
9669.9 kPa	979.3 kg/m3
9681.3 kPa	979.5 kg/m3
9694.7 kPa	979.3 kg/m3
9706.3 kPa	979.4 kg/m3
9735.4 kPa	979.4 kg/m3
9747.4 kPa	979.4 kg/m3
9762.1 kPa	979.4 kg/m3
9776.4 kPa	979.4 kg/m3
9788.2 kPa	979.5 kg/m3
9798.4 kPa	979.4 kg/m3
9804.9 kPa	979.4 kg/m3
9900.4 kPa	979.4 kg/m3
9910.4 kPa	979.4 kg/m3
9915.9 kPa	979.4 kg/m3
9925.7 kPa	979.6 kg/m3
9936.9 kPa	979.5 kg/m3
9949.3 kPa	979.5 kg/m3
9960.5 kPa	979.5 kg/m3
9987.7 kPa	979.6 kg/m3
9992.5 kPa	979.5 kg/m3
10032 kPa	979.7 kg/m3
10036 kPa	979.6 kg/m3 and 979.7 kg/m3
10106 kPa	979.7 kg/m3
10118 kPa	979.7 kg/m3
10128 kPa	979.6 kg/m3
10139 kPa	979.6 kg/m3
10152 kPa	979.6 kg/m3
10164 kPa	979.7 kg/m3
10182 kPa	979.6 kg/m3
10203 kPa	979.7 kg/m3
10219 kPa	979.8 kg/m3
10240 kPa	979.8 kg/m3
10257 kPa	979.7 kg/m3
10473 kPa	979.9 kg/m3
10503 kPa	979.9 kg/m3
10540 kPa	980 kg/m3
10575 kPa	979.9 kg/m3
10605 kPa	980 kg/m3
10670 kPa	980 kg/m3
10704 kPa	980 kg/m3
10737 kPa	980.1 kg/m3
10764 kPa	980.1 kg/m3
10956 kPa	980.2 kg/m3
10977 kPa	980.2 kg/m3
11001 kPa	980.3 kg/m3
11018 kPa	980.2 kg/m3
11037 kPa	980.2 kg/m3
11056 kPa	980.3 kg/m3
11071 kPa	980.4 kg/m3
11201 kPa	980.4 kg/m3
11204 kPa	980.4 kg/m3
11210 kPa	980.4 kg/m3
11217 kPa	980.4 kg/m3
11228 kPa	980.4 kg/m3
11243 kPa	980.4 kg/m3
11257 kPa	980.3 kg/m3
11280 kPa	980.5 kg/m3
11301 kPa	980.4 kg/m3
11327 kPa	980.5 kg/m3
11349 kPa	980.5 kg/m3
11374 kPa	980.6 kg/m3
11395 kPa	980.6 kg/m3
11421 kPa	980.6 kg/m3
11448 kPa	980.5 kg/m3
11470 kPa	980.5 kg/m3
11496 kPa	980.6 kg/m3
11518 kPa	980.6 kg/m3
11545 kPa	980.6 kg/m3
11572 kPa	980.5 kg/m3
11594 kPa	980.5 kg/m3
11621 kPa	980.6 kg/m3
11849 kPa	980.8 kg/m3
11899 kPa	980.9 kg/m3
11926 kPa	980.8 kg/m3
